Inhibition data for 26 molecules are collected here from patent US10358436B2, “Kinase inhibitors and method of treating cancer” (University Health Network, priority 2010, dated 2019).

The structures appear in SMILES notation. Structures can show the parent of a compound that is named as a salt.

The target of the assay is Aurora A (Homo sapiens (Human), UniProt O14965). Briefly: Aurora A inhibition assay (Z-Lyte). In kind it is biochemical.
Chain of Aurora A (O14965 whole entry): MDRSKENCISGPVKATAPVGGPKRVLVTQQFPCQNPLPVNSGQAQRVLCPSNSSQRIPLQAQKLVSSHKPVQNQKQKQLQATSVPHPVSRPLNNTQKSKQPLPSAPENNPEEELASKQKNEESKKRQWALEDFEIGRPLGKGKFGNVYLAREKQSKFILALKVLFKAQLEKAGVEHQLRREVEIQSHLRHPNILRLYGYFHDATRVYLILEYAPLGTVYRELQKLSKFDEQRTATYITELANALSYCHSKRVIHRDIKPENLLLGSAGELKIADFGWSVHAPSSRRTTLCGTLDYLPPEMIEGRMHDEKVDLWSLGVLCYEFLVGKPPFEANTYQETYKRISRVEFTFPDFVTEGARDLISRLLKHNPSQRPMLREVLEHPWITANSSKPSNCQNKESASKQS

`COc1ccc2c(c1)[C@]1(C[C@H]1c1ccc3c(-c4ccc(N5CCC(N6CCOCC6)CC5)cc4)n[nH]c3c1)C(=O)N2` [Example A121, (1R,2S)-5′-methoxy-2-(3-(4-(4-morpholinopiperidin-1-yl)phenyl)-1H-indazol-6-yl)spiro[cyclopropane-1,3′-indolin]-2′-one 2,2,2-trifluoroacetate] came in with an inhibition at 1 µM of less than 50%. Turning to `COc1ccc2c(c1)[C@]1(C[C@H]1c1ccc3c(-c4ccc(OCCN(C)C)cc4)n[nH]c3c1)C(=O)N2` [Example A69, (1R,2S)-2-(3-(4-(2-(dimethylamino)ethoxy)phenyl)-1H-indazol-6-yl)-5′-methoxyspiro[cyclopropane-1,3′-indolin]-2′-one 2,2,2-trifluoroacetate salt], the inhibition at 1 µM was less than 50%.

In turn, `COc1ccc2c(c1)[C@@]1(C[C@@H]1c1ccc3c(-c4ccc(N5CCN(C)CC5)nc4)n[nH]c3c1)C(=O)N2` (stereo in doubt) [Example A16, (1S,2R)-5′-methoxy-2-(3-(6-(4-methylpiperazin-1-yl)pyridin-3-yl)-1H-indazol-6-yl)spiro[cyclopropane-1,3′-indolin]-2′-one] came in with an inhibition at 1 µM of less than 50%.

Consider `NS(=O)(=O)c1cccc(-c2n[nH]c3cc([C@@H]4C[C@@]45C(=O)Nc4ccccc45)ccc23)c1` (relative stereo) [Example A130, 3-(6-((1R*,2S*)-2′-oxospiro[cyclopropane-1,3′-indoline]-2-yl)-1H-indazol-3-yl)benzenesulfonamide], for which the inhibition at 1 µM was less than 50%. For the molecule `COc1ccc2c(c1)[C@]1(C[C@H]1c1ccc3c(/C=C/c4ccc(N5CCOCC5)nc4)n[nH]c3c1)C(=O)N2` (relative stereo) [Example A213, (1R*,2S*)-5′-methoxy-2-(3-((E)-2-(6-morpholinopyridin-3-yl)vinyl)-1H-indazol-6-yl)spiro[cyclopropane-1,3′-indolin]-2′-one 2,2,2-trifluoroacetate], the inhibition at 1 µM is greater than 50%.

On to `COc1ccc2c(c1)[C@]1(C[C@H]1c1ccc3c(-c4ccc(N5CC[C@@H](N(C)C)C5)cc4)n[nH]c3c1)C(=O)N2` [Example A127, (1R,2S)-2-(3-(4-((R)-3-(dimethylamino)pyrrolidin-1-yl)phenyl)-1H-indazol-6-yl)-5′-methoxyspiro[cyclopropane-1,3′-indolin]-2′-one 2,2,2-trifluoroacetate], for which the inhibition at 1 µM is greater than 50%. The same measure for `COc1ccc2c(c1)[C@]1(C[C@H]1c1ccc3c(/C=C/c4ccc(CN5CCOCC5)c(F)c4)n[nH]c3c1)C(=O)N2` [Example A199, (1R,2S)-(E)-2-(3-(3-fluoro-4-(morpholinomethyl)styryl)-1H-indazol-6-yl)-S-methoxyspiro[cyclopropane-1,3′-indolin]-2′-one 2,2,2-trifluoroacetate]: greater than 50%. The same measure for `COc1ccc2c(c1)[C@]1(C[C@H]1c1ccc3c(-c4ccc(N5CCC(O)CC5)nc4)n[nH]c3c1)C(=O)N2` (relative stereo) [Example A117, (1R*,2S*)-2-(3-(6-(4-hydroxypiperidin-1-yl)pyridin-3-yl)-1H-indazol-6-yl)-S-methoxyspiro[cyclopropane-1,3′-indolin]-2′-one 2,2,2-trifluoroacetate]: less than 50%.

In turn, `CCc1ccc2c(c1)[C@]1(C[C@H]1c1ccc3c(-c4cccc(CN5CCOCC5)c4)n[nH]c3c1)C(=O)N2` (relative stereo) [Example A141, (1R*,2S*)-5′-ethyl-2-(3-(3-(morpholinomethyl)phenyl)-1H-indazol-6-yl)spiro[cyclopropane-1,3′-indolin]-2′-one 2,2,2-trifluoroacetate] registered an inhibition at 1 µM of less than 50%. For the molecule `COc1ccc2c(c1)[C@]1(C[C@H]1c1ccc3c(-c4ccc(N5CCC(N(C)C)CC5)cc4)n[nH]c3c1)C(=O)N2` (relative stereo) [Example A119, (1R*,2S*)-2-(3-(4-(4-(dimethylamino)piperidin-1-yl)phenyl)-1H-indazol-6-yl)-5′-methoxyspiro[cyclopropane-1,3′-indolin]-2′-one 2,2,2-trifluoroacetate], the inhibition at 1 µM is less than 50%. Take `COc1ccc2c(c1)[C@]1(C[C@H]1c1ccc3c(-c4ccc(CN(C)C)cc4)n[nH]c3c1)C(=O)N2` (relative stereo) [Example A166, (1R*,2S*)-2-(3-(4-((dimethylamino)methyl)phenyl)-1H-indazol-6-yl)-5′-methoxyspiro[cyclopropane-1,3′-indolin]-2′-one 2,2,2-trifluoroacetate]: the inhibition at 1 µM is less than 50%. The same measure for `O=C1Nc2ccccc2[C@]12C[C@H]2c1ccc2c(/C=C/c3cccnc3)n[nH]c2c1` [Example A29, (1R,2S)-2-(3-((E)-2-(pyridin-3-yl)vinyl)-1H-indazol-6-yl)spiro[cyclopropane-1,3′-indolin]-2′-one]: greater than 50%; for `COc1ccc2c(c1)[C@]1(C[C@H]1c1ccc3c(-c4cccc(CN5CCOCC5)c4)n[nH]c3c1)C(=O)N2` (relative stereo) [Example A136, (1R*,2S*)-5′-methoxy-2-(3-(3-(morpholinomethyl)phenyl)-1H-indazol-6-yl)spiro[cyclopropane-1,3′-indolin]-2′-one 2,2,2-trifluoroacetate]: less than 50%; for `CN1CCN(c2ccc(/C=C/c3n[nH]c4cc([C@@H]5C[C@@]56C(=O)N(C)c5ccccc56)ccc34)cn2)CC1` [Example A110, (1R,2S)-1′-methyl-2-(3-((E)-2-(6-(4-methylpiperazin-1-yl)pyridin-3-yl)vinyl)-1H-indazol-6-yl)spiro[cyclopropane-1,3′-indolin]-2′-one bis(2,2,2-trifluoroacetate)]: greater than 50%.

`COc1ccc2c(c1)[C@]1(C[C@H]1c1ccc3c(/C=C/c4ccc(CN5CCCOCC5)cc4)n[nH]c3c1)C(=O)N2` [Example A73, (1R,2S)-(E)-2-(3-(4-((1,4-oxazepan-4-yl)methyl)styryl)-1H-indazol-6-yl)-5′-methoxyspiro[cyclopropane-1,3′-indolin]-2′-one 2,2,2-trifluoroacetate salt] returned an inhibition at 1 µM greater than 50%. The same measure for `COc1ccc2c(c1)[C@@]1(C[C@@H]1c1ccc3c(-c4ccc(N5CCN(C)CC5)nc4)n[nH]c3c1)C(=O)N2` [Example A15, (1S,2R)-5′-methoxy-2-(3-(6-(4-methylpiperazin-1-yl)pyridin-3-yl)-1H-indazol-6-yl)spiro[cyclopropane-1,3′-indolin]-2′-one]: less than 50%; for `COc1ccc2c(c1)[C@]1(C[C@H]1c1ccc3c(-c4ccc(OCCN5CCOCC5)cc4)n[nH]c3c1)C(=O)N2` [Example A68, (1R,2S)-5′-methoxy-2-(3-(4-(2-morpholinoethoxy)phenyl)-1H-indazol-6-yl)spiro[cyclopropane-1,3′-indolin]-2′-one 2,2,2-trifluoroacetate salt]: less than 50%; for `COc1ccc2c(c1)[C@]1(C[C@H]1c1ccc3c(I)n[nH]c3c1)C(=O)N2` [Example A7, (1R,2S)-2-(3-iodo-1H-indazol-6-yl)-5′-methoxyspiro[cyclopropane-1,3′-indolin]-2′-one]: less than 50%. The same measure for `COc1ccc2c(c1)[C@]1(C[C@H]1c1ccc3c(C#Cc4cccnc4)n[nH]c3c1)C(=O)N2` (relative stereo) [Example A52, (1R*,2S*)- and (1R*,2S*)-5′-methoxy-2-(3-(pyridin-3-ylethynyl)-1H-indazol-6-yl)spiro[cyclopropane-1,3′-indolin]-2′-one]: less than 50%; for `CN(C)Cc1ccc(/C=C/c2n[nH]c3cc([C@@H]4C[C@@]45C(=O)N(CC(N)=O)c4ccccc45)ccc23)cc1` (relative stereo) [Example A160, 2-((1R*,2S*)-(E)-2-(3-(4-((dimethylamino)methyl)styryl)-1H-indazol-6-yl)-2′-oxospiro[cyclopropane-1,3′-indoline]-1′-yl)acetamide 2,2,2-trifluoroacetate]: greater than 50%.

In turn, `CCN(CC)Cc1c(F)cc(/C=C/c2n[nH]c3cc([C@@H]4C[C@@]45C(=O)Nc4ccc(OC)cc45)ccc23)cc1F` [Example A146, (1R,2S)-(E)-2-(3-(4-((diethylamino)methyl)-3,5-difluorostyryl)-1H-indazol-6-yl)-5′-methoxyspiro[cyclopropane-1,3′-indolin]-2′-one 2,2,2-trifluoroacetate] had an inhibition at 1 µM of less than 50%. The same measure for `CN1CCN(Cc2ccc(-c3n[nH]c4cc([C@@H]5C[C@@]56C(=O)Nc5ccccc56)ccc34)cc2)CC1` (relative stereo) [Example A155, (1R*,2S*)-2-(3-(4-((4-methylpiperazin-1-yl)methyl)phenyl)-1H-indazol-6-yl)spiro[cyclopropane-1,3′-indolin]-2′-one bis-2,2,2-trifluoroacetate]: less than 50%.

Regarding `CCN1CCN(c2ccc(/C=C/c3n[nH]c4cc([C@@H]5C[C@@]56C(=O)Nc5ccc(OC)cc56)ccc34)cc2)CC1` [Example A187, (1R,2S)-(E)-2-(3-(4-(4-ethylpiperazin-1-yl)styryl)-1H-indazol-6-yl)-5′-methoxyspiro[cyclopropane-1,3′-indolin]-2′-one 2,2,2-trifluoroacetate], the inhibition at 1 µM is greater than 50%. The same measure for `COc1cc2c(cc1OC)[C@]1(C[C@H]1c1ccc3c(/C=C/c4ccc(CN(C)C)cc4)n[nH]c3c1)C(=O)N2` (relative stereo) [Example A168, (1R*,2S*)-(E)-2-(3-(4-((dimethylamino)methyl)styryl)-1H-indazol-6-yl)-5′,6′-dimethoxyspiro[cyclopropane-1,3′-indolin]-2′-one 2,2,2-trifluoroacetate]: less than 50%; for `COc1ccc2c(c1)[C@]1(C[C@H]1c1ccc3c(/C=C/c4cc(F)c(CN5CCOCC5)c(F)c4)n[nH]c3c1)C(=O)N2` (relative stereo) [Example A217, (1R*,2S*)-(E)-2-(3-(3,5-difluoro-4-(morpholinomethyl)styryl-1H-indazol-6-yl)-5′-methoxyspiro[cyclopropane-1,3′-indolin]-2′-one 2,2,2-trifluoroacetate]: greater than 50%; for `COc1ccc2c(c1)[C@]1(C[C@H]1c1ccc3c(-c4ccc(N5CCN(C6CCCCC6)CC5)cc4)n[nH]c3c1)C(=O)N2` [Example A193, (1R,2S)-2-(3-(4-(4-cyclohexylpiperazin-1-yl)phenyl)-1H-indazol-6-yl)-5′-methoxyspiro[cyclopropane-1,3′-indolin]-2′-one 2,2,2-trifluoroacetate]: less than 50%.
